From patent US20040115237A1, “Biocompatible composite” (priority 2001, published 2004)

What was measured:
[1] = test system: Human Aortic Vascular SMC cell line; assay: SMC growth inhibition after drug exposure, MTT assay and Neutral Red assay; type: cell-based; settings: high doses; analysed after 72 hours
Procedure: The Human Aortic Vascular SMC cell line was investigated. 96 well plates were seeded and were incubated for at least one day. Medium from the plate was removed and replaced with medium containing varying concentrations of drugs, the drugs being dex, aspirin, GTN or a combination of these drugs. The effects of the drugs were analysed after 72 hours with two viability assays: MTT assay and Neutral Red assay. Absorbance values were read from a microplate reader. MTT is a yellow tetrazolium salt taken up into cells. In viable cells, the salt was reduced in cytosol or mitochondria to form blue formazan salt. The formazan product was very insoluble and was disolved in dimethylsulphoxide before its absorbance was calculated. In non-viable cells, there was no reaction and the cells remained yellow. The Neutral Red assay involved adding neutral red solution, a red dye to cells. In viable cells, the dye stained lysosomes. The cells were incubated with neutral red solution for three hours (to enable dye to penetrate cells), a neutral red destain solution was then added to remove the dye. The intensity of the red colour equated to the number of viable cells.

HA-VSCMs = assay: HA-VSMC culture on silicone based film membranes, viability staining viewed under CLSM; type: cell-based, Human; settings: GTN coated FISi membrane vs FISi only film membranes
Procedure: HA-VSCMs were cultured on silicone based film membranes supplied by Vascutek. 2 membrane types were tested: uncoated FISi membrane and FISi membrane coated with GTN. Cells were seeded at 5×10^3 seeding density. Cells were cultured for a week and the medium was changed every two days. […] This problem was overcome by sticking the coverslips to the plate with double sided tape before the wells were seeded. Furthermore the cells were washed off during staining or the cells were saved for too long. Some cells were saved by introducing a gentle washing step. On the seventh day, the coverslips were stained and viewed under the CLSM for viability studies.
The following were used as viability stains; CFDA (carboxyfluorescein diacetate) is a vital stain that penetrates cell membranes. Viable cells contain esterase enzymes that remove the diacetate from the molecule thus forming CF which is fluorescent. Once CF if formed, it accumulates in the membrane and viable cells with fluoresce bright green.
Ethidium Bromide: is a vital dye that is only able to pass through the compromised membrane of dead cells and stain them red.
Acridine Orange: is a dye which intercalates with DNA and RNA by intercalation or electrostatic attraction.

Row | Compound | role in the treatment of vascular proliferative disorder (SMC growth inhibition) [1] | cell growth compared to FISi only film membranes (HA-VSCMs)
1 | CC(=O)Oc1ccccc1C(=O)O [aspirin, acetylsalicylic acid] | appear to have a beneficial role | –
2 | O=[N+]([O-])OCC(CO[N+](=O)[O-])O[N+](=O)[O-] [GTN, Glyceryl Trinitrate] | – | does not significantly decrease cell growth
